{
  "source": "PubChem BioAssay (NCI)",
  "note": "Where “and” joins values, the source holds several entries; their conditions need not be identical. Identical values can stand only once.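 Assay format: 96-well plates, 48-hour exposure. GI50 is the concentration that inhibits growth by half. TGI: concentration producing complete growth inhibition.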",
  "data": [
    {"system": "MDA-MB-468 breast", "assay": "NCI tumour cell line growth inhibition, 48 h", "values": [
      {"molecule": "CC(=O)O[C@@H]1C(=O)N(c2cnccn2)[C@H]1c1ccccc1[N+](=O)[O-]", "GI50": "0.376 µM", "TGI": "4.05 µM"},
      {"molecule": "O=C(Nc1cccc(Cl)c1)Nc1nc2ccc([N+](=O)[O-])cc2o1", "GI50": "2.26 µM", "TGI": "5.73 µM"},
      {"molecule": "C=C(C=O)[C@@H]1CC[C@]2(C(=O)O)CC[C@]3(C)C(CC[C@@H]4[C@@](C)(CCC#N)[C@H](C(=C)C=O)CC[C@]43C)[C@@H]12", "note": "(some centres undefined)", "GI50": "2.31 µM", "TGI": "5.69 µM"},
      {"molecule": "O=C1C(Cl)=C(Nc2ccc3c(c2NC2=C(Cl)C(=O)c4ccccc4C2=O)C(=O)c2ccccc2C3=O)C(=O)c2ccccc21", "GI50": "1.35 µM", "TGI": "3.85 µM"},
      {"molecule": "O=C(Nc1ccc([N+](=O)[O-])cc1)c1cc2ccccc2cc1O", "GI50": "0.898 µM", "TGI": "4.74 µM"},
      {"molecule": "CCOC(=O)c1cn2ncnc(Oc3ccc(NC(=O)NCCN(CC)CC)c(Cl)c3)c2c1C", "GI50": "9.57 µM", "TGI": "29 µM"},
      {"molecule": "O=C1/C(=C/c2ccc(C(F)(F)F)cc2)COc2ccc(O)cc21", "GI50": "1.53 µM", "TGI": "3.04 µM"},
      {"molecule": "C#CCOc1cccc(Nc2ncnc3c2ncn3C2CCN(C(=O)CCl)C2)c1", "note": "(centres undefined)", "GI50": "19.8 µM", "TGI": "41 µM"},
      {"molecule": "CN1CCN(c2ccc([N+](=O)[O-])c3no[n+]([O-])c23)CC1", "GI50": "0.203 µM", "TGI": "0.821 µM"},
      {"molecule": "C=C1C(=O)O[C@H]2[C@H]1CC/C(COC(=O)NCc1cccc(OC)c1)=C\\CC[C@@]1(C)O[C@@H]21", "GI50": "1.29 µM", "TGI": "3.84 µM"},
      {"molecule": "CCCCCCCCCCC(CN(CC)CC)C(O)c1ccccc1", "note": "(centres undefined)", "GI50": "1.52 µM", "TGI": "3.21 µM"},
      {"molecule": "ClC1=C(Cl)C(Cl)=C(Cl)C1=Cc1ccc(Cl)cc1Cl", "GI50": "0.257 µM", "TGI": "0.728 µM"},
      {"molecule": "Cc1ccc(C(=O)Nc2ccccc2C(=O)N/N=C(\\c2ccccc2)c2ccccn2)cc1", "GI50": "0.266 µM", "TGI": "2.94 µM"},
      {"molecule": "COc1ccc(-c2cc3nccn3c(Nc3ncccc3C(N)=O)n2)cc1OC", "GI50": "> 100 µM", "TGI": "> 100 µM"},
      {"molecule": "O=C(NNc1nc2cc(F)cc(F)c2n2cccc12)c1cccnn1", "GI50": "0.638 µM and 0.219 µM", "TGI": "2.43 µM and 1.47 µM"},
      {"molecule": "O=c1[nH]cc(F)c(=O)[nH]1", "TGI": "> 100 µM and 1560 µM"},
      {"molecule": "COc1cc2c(cc1-c1c(C)noc1C)ncc1[nH]c(=O)n([C@H](C)c3ccccn3)c12", "GI50": "0.445 µM", "TGI": "> 36.8 µM"},
      {"molecule": "Clc1ccc2c(NCCN3CCN(c4ccnc(N5CCCC5)n4)CC3)ccnc2c1", "GI50": "2.05 µM", "TGI": "5.09 µM"},
      {"molecule": "Cc1ccc2oc(=O)cc(C3c4ccc([nH]4)C(c4cc(=O)oc5ccc(C)cc45)c4ccc([nH]4)C(c4cc(=O)oc5ccc(C)cc45)c4ccc([nH]4)C(c4cc(=O)oc5ccc(C)cc45)c4ccc3[nH]4)c2c1", "note": "(centres undefined)", "GI50": "0.0344 µM", "TGI": "1.86 µM"},
      {"molecule": "Cc1sc2c(c1C)C(c1ccc(Cl)cc1)=N[C@@H](CC(=O)Nc1ccc(O)cc1)c1nnc(C)n1-2", "GI50": "0.212 µM", "TGI": "17.8 µM"},
      {"molecule": "c1cc(-c2cnn3nc(N4CCOCC4)ccc23)nc(NC2CC2)n1", "GI50": "6.8 µM", "TGI": "21 µM"},
      {"molecule": "CCN1CCN(c2nc(C)cc(N(CCCNc3ccnc4cc(Cl)ccc34)Cc3ccco3)n2)CC1", "GI50": "2.2 µM", "TGI": "5.28 µM"},
      {"molecule": "CO[C@@]12[C@H](COC(N)=O)C3=C(C(=O)C(C)=C(N)C3=O)N1C[C@@H]1N[C@@H]12", "GI50": "0.241 µM and 1.01 µM", "TGI": "1.3 µM and 4.9 µM"},
      {"molecule": "COc1ccc(Cn2cc3c(c2-c2ccccc2)CCc2cncnc2-3)cc1", "GI50": "3.25 µM", "TGI": "11 µM"},
      {"molecule": "O=C(Nn1c2c(sc1=NC1CC1)C(=O)c1ccccc1C2=O)c1cc2ccc1CCc1ccc(cc1)CC2", "GI50": "2.55 µM", "TGI": "7.32 µM"},
      {"molecule": "Cc1cc(Cl)ccc1Nc1nc(C(F)(F)F)ccc1C(=O)N/N=C/c1ccc(N(C)C)cc1", "GI50": "0.442 µM", "TGI": "4.67 µM"},
      {"molecule": "COc1cc(C2c3cc4c(cc3OC(N3CCOCC3)C2C)OCO4)cc(OC)c1OC", "note": "(centres undefined)", "GI50": "4.15 µM", "TGI": "> 100 µM"},
      {"molecule": "c1ccc([P+](CCC[P+](c2ccccc2)(c2ccccc2)c2ccccc2)(c2ccccc2)c2ccccc2)cc1", "GI50": "1.72 µM", "TGI": "26.3 µM"},
      {"molecule": "CC1(C)CC(O)CCCCCCOc2c(CN)cccc2NC(=O)c2nc(cnc2N)-c2ccc(cc2)S1(=O)=O", "note": "(centres undefined)", "GI50": "0.49 µM", "TGI": "2.45 µM"},
      {"molecule": "CN(C)S(=O)(=O)c1cccc(-c2nc3sc4c(c3c(=O)[nH]2)CCCC4)c1", "GI50": "8.92 µM", "TGI": "> 100 µM"}
    ]}
  ]
}
